Results published in PubChem BioAssay (NCI).
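Protocol summary: plate cells (96-well), add compound at 5 concentrations, incubate 48 h, interpolate endpoints linearly. GI50 = concentration required for 50% inhibition of growth. The concentration for full growth arrest is given as TGI.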

Columns and labels:
Assay in all cases: NCI-60 cell line screen, 48 h
U251 CNS = tested on: U251 CNS
ACHN renal = tested on: ACHN renal
HCC-2998 colon = tested on: HCC-2998 colon
HS 578T breast = tested on: HS 578T breast
EKVX NSCLC = tested on: EKVX NSCLC
HOP-92 NSCLC = tested on: HOP-92 NSCLC
HCT-116 colon = tested on: HCT-116 colon
SF-295 CNS = tested on: SF-295 CNS
UACC-62 melanoma = tested on: UACC-62 melanoma
DU-145 prostate = tested on: DU-145 prostate
SK-MEL-5 melanoma = tested on: SK-MEL-5 melanoma
PC-3 prostate = tested on: PC-3 prostate
OVCAR-5 ovarian = tested on: OVCAR-5 ovarian
OVCAR-3 ovarian = tested on: OVCAR-3 ovarian
NCI-H460 lung = tested on: NCI-H460 lung
OVCAR-4 ovarian = tested on: OVCAR-4 ovarian
SNB-19 CNS = tested on: SNB-19 CNS
786-0 renal = tested on: 786-0 renal
HT29 colon = tested on: HT29 colon
MDA-MB-435 = tested on: MDA-MB-435
IGROV1 ovarian = tested on: IGROV1 ovarian
NCI-H226 lung = tested on: NCI-H226 lung
SF-268 CNS = tested on: SF-268 CNS
A549 NSCLC = tested on: A549 NSCLC
SNB-75 CNS = tested on: SNB-75 CNS
RPMI-8226 leukemia = tested on: RPMI-8226 leukemia
A498 renal = tested on: A498 renal
HOP-62 NSCLC = tested on: HOP-62 NSCLC
CCRF-CEM leukemia = tested on: CCRF-CEM leukemia
RXF 393 renal = tested on: RXF 393 renal
SN12C renal = tested on: SN12C renal
MALME-3M melanoma = tested on: MALME-3M melanoma
TK-10 renal = tested on: TK-10 renal
SK-MEL-2 melanoma = tested on: SK-MEL-2 melanoma
HL-60(TB) leukemia = tested on: HL-60(TB) leukemia
SW-620 colon = tested on: SW-620 colon
MDA-MB-231 breast = tested on: MDA-MB-231 breast
BT-549 breast = tested on: BT-549 breast
SF-539 CNS = tested on: SF-539 CNS
M14 melanoma = tested on: M14 melanoma
SK-MEL-28 melanoma = tested on: SK-MEL-28 melanoma
NCI-H522 lung = tested on: NCI-H522 lung
HCT-15 colon = tested on: HCT-15 colon
KM12 colon = tested on: KM12 colon
NCI/ADR-RES ovarian = tested on: NCI/ADR-RES ovarian
CAKI-1 renal = tested on: CAKI-1 renal
UO-31 renal = tested on: UO-31 renal
SK-OV-3 ovarian = tested on: SK-OV-3 ovarian
UACC-257 melanoma = tested on: UACC-257 melanoma
NCI-H23 lung = tested on: NCI-H23 lung
OVCAR-8 ovarian = tested on: OVCAR-8 ovarian
MCF7 breast = tested on: MCF7 breast
LOX IMVI melanoma = tested on: LOX IMVI melanoma
COLO 205 colon = tested on: COLO 205 colon

Question: Which results are given for Cn1cc(-c2csc(-c3c[nH]c4ccccc34)n2)c2cnccc21?
Answer: GI50 (U251 CNS): 1.95 µM; TGI (U251 CNS): 3.72 µM; GI50 (ACHN renal): 1.93 µM; TGI (ACHN renal): 3.77 µM; GI50 (HCC-2998 colon): 2.01 µM; TGI (HCC-2998 colon): 3.61 µM; GI50 (HS 578T breast): 2.21 µM; TGI (HS 578T breast): 4.72 µM; GI50 (EKVX NSCLC): 1.92 µM; TGI (EKVX NSCLC): 4.61 µM; GI50 (HOP-92 NSCLC): 1.52 µM; TGI (HOP-92 NSCLC): 3.28 µM; GI50 (HCT-116 colon): 1.73 µM; TGI (HCT-116 colon): 3.22 µM; GI50 (SF-295 CNS): 1.81 µM; TGI (SF-295 CNS): 3.37 µM; GI50 (UACC-62 melanoma): 1.82 µM; TGI (UACC-62 melanoma): 3.32 µM; GI50 (DU-145 prostate): 2.24 µM; TGI (DU-145 prostate): 5.65 µM; GI50 (SK-MEL-5 melanoma): 1.76 µM; TGI (SK-MEL-5 melanoma): 3.18 µM; GI50 (PC-3 prostate): 2.4 µM; TGI (PC-3 prostate): 6.31 µM; GI50 (OVCAR-5 ovarian): 2.62 µM; TGI (OVCAR-5 ovarian): 5.52 µM; GI50 (OVCAR-3 ovarian): 1.96 µM; TGI (OVCAR-3 ovarian): 3.56 µM; GI50 (NCI-H460 lung): 1.85 µM; TGI (NCI-H460 lung): 3.61 µM; GI50 (OVCAR-4 ovarian): 2.3 µM; TGI (OVCAR-4 ovarian): 6.52 µM; GI50 (SNB-19 CNS): 2.07 µM; TGI (SNB-19 CNS): 4.11 µM; GI50 (786-0 renal): 1.9 µM; TGI (786-0 renal): 3.44 µM; GI50 (HT29 colon): 2.01 µM; TGI (HT29 colon): 4.26 µM; GI50 (MDA-MB-435): 1.87 µM; TGI (MDA-MB-435): 3.43 µM; GI50 (IGROV1 ovarian): 1.73 µM; TGI (IGROV1 ovarian): 3.55 µM; GI50 (NCI-H226 lung): 17.1 µM; TGI (NCI-H226 lung): 45.4 µM; GI50 (SF-268 CNS): 1.97 µM; TGI (SF-268 CNS): 3.93 µM; GI50 (A549 NSCLC): 2.47 µM; TGI (A549 NSCLC): 5.88 µM; GI50 (SNB-75 CNS): 12.9 µM; TGI (SNB-75 CNS): 26.2 µM; GI50 (RPMI-8226 leukemia): 2.14 µM; TGI (RPMI-8226 leukemia): 5 µM; GI50 (A498 renal): 1.89 µM; TGI (A498 renal): 3.58 µM; GI50 (HOP-62 NSCLC): 1.79 µM; TGI (HOP-62 NSCLC): 3.45 µM; GI50 (CCRF-CEM leukemia): 2.4 µM; TGI (CCRF-CEM leukemia): 6.42 µM; GI50 (RXF 393 renal): 1.63 µM; TGI (RXF 393 renal): 3.11 µM; GI50 (SN12C renal): 1.74 µM; TGI (SN12C renal): 3.31 µM; GI50 (MALME-3M melanoma): 1.94 µM; TGI (MALME-3M melanoma): 3.62 µM; GI50 (TK-10 renal): 2.74 µM; TGI (TK-10 renal): 5.1 µM; GI50 (SK-MEL-2 melanoma): 2.1 µM; TGI (SK-MEL-2 melanoma): 3.81 µM; GI50 (HL-60(TB) leukemia): 2.17 µM; TGI (HL-60(TB) leukemia): 4.77 µM; GI50 (SW-620 colon): 1.98 µM; TGI (SW-620 colon): 3.69 µM; GI50 (MDA-MB-231 breast): 1.67 µM; TGI (MDA-MB-231 breast): 3.22 µM; GI50 (BT-549 breast): 1.78 µM; TGI (BT-549 breast): 3.59 µM; GI50 (SF-539 CNS): 1.79 µM; TGI (SF-539 CNS): 3.29 µM; GI50 (M14 melanoma): 1.84 µM; TGI (M14 melanoma): 3.46 µM; GI50 (SK-MEL-28 melanoma): 1.8 µM; TGI (SK-MEL-28 melanoma): 3.25 µM; GI50 (NCI-H522 lung): 2.02 µM; TGI (NCI-H522 lung): 3.91 µM; GI50 (HCT-15 colon): 1.79 µM; TGI (HCT-15 colon): 3.6 µM; GI50 (KM12 colon): 1.65 µM; TGI (KM12 colon): 3.41 µM; GI50 (NCI/ADR-RES ovarian): 2.4 µM; TGI (NCI/ADR-RES ovarian): 5.44 µM; GI50 (CAKI-1 renal): 2.08 µM; TGI (CAKI-1 renal): 4.71 µM; GI50 (UO-31 renal): 1.64 µM; TGI (UO-31 renal): 3.35 µM; GI50 (SK-OV-3 ovarian): 1.9 µM; TGI (SK-OV-3 ovarian): 3.72 µM; GI50 (UACC-257 melanoma): 2 µM; TGI (UACC-257 melanoma): 3.72 µM; GI50 (NCI-H23 lung): 1.77 µM; TGI (NCI-H23 lung): 3.97 µM

Question: Which results are given for C#CC[C@@H]1C[C@]2(C)[C@H]3CC[C@@H]4[C@H]5C(C(=C)C)CC[C@]5(C(=O)NCCCCN)CC[C@@]4(C)[C@]3(C)CC[C@H]2C(C)(C)[C@H]1OC(C)=O (stereo not given in full)?
Answer: GI50 (U251 CNS): 1.81 µM; TGI (U251 CNS): 3.51 µM; GI50 (ACHN renal): 1.65 µM; TGI (ACHN renal): 3.01 µM; GI50 (HS 578T breast): 1.82 µM; TGI (HS 578T breast): 3.81 µM; GI50 (EKVX NSCLC): 1.84 µM; TGI (EKVX NSCLC): 3.78 µM; GI50 (SF-295 CNS): 1.84 µM; TGI (SF-295 CNS): 3.41 µM; GI50 (UACC-62 melanoma): 1.82 µM; TGI (UACC-62 melanoma): 3.26 µM; GI50 (SK-MEL-5 melanoma): 1.8 µM; TGI (SK-MEL-5 melanoma): 3.27 µM; GI50 (PC-3 prostate): 1.64 µM; TGI (PC-3 prostate): 3.17 µM; GI50 (OVCAR-5 ovarian): 1.67 µM; TGI (OVCAR-5 ovarian): 3.06 µM; GI50 (OVCAR-3 ovarian): 1.78 µM; TGI (OVCAR-3 ovarian): 3.33 µM; GI50 (NCI-H460 lung): 1.91 µM; TGI (NCI-H460 lung): 3.71 µM; GI50 (OVCAR-4 ovarian): 1.76 µM; TGI (OVCAR-4 ovarian): 3.33 µM; GI50 (HT29 colon): 1.9 µM; TGI (HT29 colon): 4.04 µM; GI50 (MDA-MB-435): 1.73 µM; TGI (MDA-MB-435): 3.19 µM; GI50 (IGROV1 ovarian): 1.73 µM; TGI (IGROV1 ovarian): 3.35 µM; GI50 (OVCAR-8 ovarian): 2.21 µM; TGI (OVCAR-8 ovarian): 5.34 µM; GI50 (NCI-H226 lung): 2.03 µM; TGI (NCI-H226 lung): 4.84 µM; GI50 (SF-268 CNS): 1.85 µM; TGI (SF-268 CNS): 3.93 µM; GI50 (SNB-75 CNS): 1.41 µM; TGI (SNB-75 CNS): 2.78 µM; GI50 (RPMI-8226 leukemia): 2.1 µM; TGI (RPMI-8226 leukemia): 5.06 µM; GI50 (A498 renal): 1.78 µM; TGI (A498 renal): 3.19 µM; GI50 (HOP-62 NSCLC): 1.91 µM; TGI (HOP-62 NSCLC): 4.07 µM; GI50 (RXF 393 renal): 1.55 µM; TGI (RXF 393 renal): 3.14 µM; GI50 (MCF7 breast): 1.67 µM; TGI (MCF7 breast): 3.86 µM; GI50 (SN12C renal): 1.73 µM; TGI (SN12C renal): 3.34 µM; GI50 (MALME-3M melanoma): 1.68 µM; TGI (MALME-3M melanoma): 3.33 µM; GI50 (TK-10 renal): 1.86 µM; TGI (TK-10 renal): 3.48 µM; GI50 (SK-MEL-2 melanoma): 1.71 µM; TGI (SK-MEL-2 melanoma): 3.4 µM; GI50 (SW-620 colon): 1.83 µM; TGI (SW-620 colon): 3.74 µM; GI50 (MDA-MB-231 breast): 1.79 µM; TGI (MDA-MB-231 breast): 3.45 µM; GI50 (BT-549 breast): 1.76 µM; TGI (BT-549 breast): 3.34 µM; GI50 (LOX IMVI melanoma): 1.56 µM; TGI (LOX IMVI melanoma): 3 µM; GI50 (SF-539 CNS): 1.66 µM; TGI (SF-539 CNS): 3.11 µM; GI50 (M14 melanoma): 1.77 µM; TGI (M14 melanoma): 3.46 µM; GI50 (SK-MEL-28 melanoma): 1.76 µM; TGI (SK-MEL-28 melanoma): 3.25 µM; GI50 (NCI-H522 lung): 1.8 µM; TGI (NCI-H522 lung): 3.67 µM; GI50 (COLO 205 colon): 1.68 µM; TGI (COLO 205 colon): 3.3 µM; GI50 (HCT-15 colon): 1.73 µM; TGI (HCT-15 colon): 3.45 µM; GI50 (KM12 colon): 1.81 µM; TGI (KM12 colon): 3.36 µM; GI50 (NCI/ADR-RES ovarian): 1.82 µM; TGI (NCI/ADR-RES ovarian): 3.98 µM; GI50 (CAKI-1 renal): 1.6 µM; TGI (CAKI-1 renal): 3.07 µM; GI50 (UO-31 renal): 1.56 µM; TGI (UO-31 renal): 2.95 µM; GI50 (SK-OV-3 ovarian): 1.94 µM; TGI (SK-OV-3 ovarian): 3.54 µM; GI50 (UACC-257 melanoma): 1.89 µM; TGI (UACC-257 melanoma): 3.77 µM; GI50 (NCI-H23 lung): 1.85 µM; TGI (NCI-H23 lung): 3.53 µM
